# Assay results reported in US20040076968A1, “Method for detecting pre-disposition to hepatotoxicity” (priority 2000, published 2004).
# How the values were obtained:
# [1] = tested on: UGT1A gene 3′UTR (exon 5); assay: Association of the UGT1A 3′UTR polymorphism with liver function abnormality in tolcapone-treated patients (case-control genotyping); assay type: in vivo, human; conditions: UGT1A-3′_908
# Description: (§1) Disease severity had already been controlled for by the original study inclusion criteria.
# (§2) In the KTC format, the generation of double-stranded amplification product is monitored using a DNA intercalating dye and a thermal cycler which has a fluorescence-detecting CCD camera attached (PE-Bipsystems GeneAmp 5700 Sequence Detection System). Fluorescence in each well of the PCR amplification plate is measured at each cycle of annealing and denaturation. The cycle at which the relative fluorescence reached a threshold of 0.5 using the SDS sofiware from PE-Biosystems was defined as the Ct.
# (§3) The amplification reactions were designed to be allele-specific, so that the amplification reaction was positive if the polymorphism was present and the amplification reaction was negative if the polymorphism was absent. For each bi-allelic polymorphism, one well of the amplification plate was set up to be specific for allele 1 and a second well was set up to be specific for allele 2. For each polymorphism to be detected, three primers were designed—two allele-specific primers and one common primer (Table 3). Reactions for allele 1 contained allele 1-specific primer and the common primer and reactions for allele 2 contained allele 2-specific primer and the common primer.
# (§4) The Ct of each amplification reaction was determined and the difference between the Ct for allele 1 and allele 2 (delta Ct) was, used as the assay result. Samples with delta Cts between −3.0 and 3.0 were considered heterozygous (A1/A2). Samples with delta Cts below −3.0 were considered homozygous for A1 (A1/A1); samples with delta Cts above 3.0 were considered homozygous for A2 (A2/A2).
# (§5) The patient samples were divided into two groups.
# (§6) For each genotype, the following analyses were performed:
# (§7) a) Analysis of the entire genotype: patients were classified according to the following three categories: homozygous 1/1 (two copies of allele 1 and no copies of allele 2), heterozygous 1/2 (one copy of allele 1 and one copy of allele 2) or homozygous 2/2 (no copies of allele 1 and two copies of allele 2). Analysis was conducted to assess whether there were differences in the proportion of case patients in each of these groups, compared with the proportion of control patients. The Cochran-Maentel-Hanszel (CMH) test was applied to the data presented in a 2-by-3 table (the two columns indicating presence or absence of liver function abnormality and the three rows indicating the three categories of the genotype).
# (§8) b) Analysis of alleles: the presence of allele 1 or 2 in case patients was compared to the presence of the respective allele in the control patients.
# c) Analysis of allele counts: this analysis was conducted to compare the distribution of the alleles in patients with liver function abnormality to that of patients without abnormality. The total number of copies of allele 1 among patients with liver function abnormality was compared with the total number of copies of allele 2 among these case patients. The CMH test was applied to the data using a 2-by-2 table (the two columns indicating presence or absence of liver function abnormality and the two rows indicating the two allele counts).
# All markers showing significant association to elevated liver transaminases corresponded to SNPs in the UGT1 genes.
# [2] = tested on: rat hepatotocyte cultures; assay: Cytotoxicity in rat hepatocyte cultures; assay type: cell-based; conditions: in vitro
# UGT1A6 gene = assay: Association of UGT1A6 polymorphisms with liver function abnormality in tolcapone-treated patients (case-control genotyping); assay type: in vivo, human
# Description: as §1, §2, §3, §4
# For all other single nucleotide polymorphisms (SNPs) discovery and genotyping was done by double-stranded DNA sequencing using an ABI capillary sequencer and Big Dye chemistry (ABI). The primers used to amplify all exons are shown below and were also used as sequencing primers. Publicly available genomic sequences were used as references for primer design. All polymorphisms were targeted with these pairs-of-primer sets:
# as §5, §6, §7, §8
# c) Analysis of allele counts: this analysis was conducted to compare the distribution of the alleles in patients with liver function abnormality to that of patients without abnormality. The total number of copies of allele 1 among patients with liver function abnormality was compared with the total number of copies of allele 2 among these case patients.
structure (smiles),measurement,setting,value
Cc1ccc(C(=O)c2cc(O)c(O)c([N+](=O)[O-])c2)cc1 [tolcapone],n (%) of patients,"[1]; Allele C Absent, Liver Function Abnormality Absent",14 (5.1%)
same,n (%) of patients,"[1]; Allele C Absent, Liver Function Abnormality Present",4 (3.0%)
same,n (%) of patients,"[1]; Allele C Present, Liver Function Abnormality Absent",260 (94.9%)
same,n (%) of patients,"[1]; Allele C Present, Liver Function Abnormality Present",131 (97.0%)
same,n (%) of patients,"[1]; Allele G Absent, Liver Function Abnormality Absent",163 (59.5%)
same,n (%) of patients,"[1]; Allele G Absent, Liver Function Abnormality Present",101 (74.8%)
same,n (%) of patients,"[1]; Allele G Present, Liver Function Abnormality Absent",111 (40.5%)
same,n (%) of patients,"[1]; Allele G Present, Liver Function Abnormality Present",34 (25.2%)
same,n (%) of allele copies,"[1]; Count Allele C, Liver Function Abnormality Absent",423 (77.2%)
same,n (%) of allele copies,"[1]; Count Allele C, Liver Function Abnormality Present",232 (85.9%)
same,n (%) of allele copies,"[1]; Count Allele G, Liver Function Abnormality Absent",125 (22.8%)
same,n (%) of allele copies,"[1]; Count Allele G, Liver Function Abnormality Present",38 (14.1%)
same,n (%) of patients,"[1]; Genotype Heterozygous G/C, Liver Function Abnormality Absent",97 (35.4%)
same,n (%) of patients,"[1]; Genotype Heterozygous G/C, Liver Function Abnormality Present",30 (22.2%)
same,n (%) of patients,"[1]; Genotype Homozygous C/C, Liver Function Abnormality Absent",163 (59.5%)
same,n (%) of patients,"[1]; Genotype Homozygous C/C, Liver Function Abnormality Present",101 (74.8%)
same,n (%) of patients,"[1]; Genotype Homozygous G/G, Liver Function Abnormality Absent",14 (5.1%)
same,n (%) of patients,"[1]; Genotype Homozygous G/G, Liver Function Abnormality Present",4 (3.0%)
same,cytotoxicity on inhibition of glucuronidation and oxidation,[2],increase cytotoxicity
same,n (%) of patients,"UGT1A6 gene; UGT1A6_232 Ser7Ala, Allele G Absent, Liver Function Abnormality Absent",112 (42.1%)
same,n (%) of patients,"UGT1A6 gene; UGT1A6_232 Ser7Ala, Allele G Absent, Liver Function Abnormality Present",40 (30.5%)
same,n (%) of patients,"UGT1A6 gene; UGT1A6_232 Ser7Ala, Allele G Present, Liver Function Abnormality Absent",154 (57.9%)
same,n (%) of patients,"UGT1A6 gene; UGT1A6_232 Ser7Ala, Allele G Present, Liver Function Abnormality Present",91 (69.5%)
same,n (%) of patients,"UGT1A6 gene; UGT1A6_232 Ser7Ala, Allele T Absent, Liver Function Abnormality Absent",31 (11.7%)
same,n (%) of patients,"UGT1A6 gene; UGT1A6_232 Ser7Ala, Allele T Absent, Liver Function Abnormality Present",28 (21.4%)
same,n (%) of patients,"UGT1A6 gene; UGT1A6_232 Ser7Ala, Allele T Present, Liver Function Abnormality Absent",235 (88.3%)
same,n (%) of patients,"UGT1A6 gene; UGT1A6_232 Ser7Ala, Allele T Present, Liver Function Abnormality Present",103 (78.6%)
same,n (%) of allele copies,"UGT1A6 gene; UGT1A6_232 Ser7Ala, Count Allele G, Liver Function Abnormality Absent",185 (34.8%)
same,n (%) of allele copies,"UGT1A6 gene; UGT1A6_232 Ser7Ala, Count Allele G, Liver Function Abnormality Present",119 (45.4%)
same,n (%) of allele copies,"UGT1A6 gene; UGT1A6_232 Ser7Ala, Count Allele T, Liver Function Abnormality Absent",347 (65.2%)
same,n (%) of allele copies,"UGT1A6 gene; UGT1A6_232 Ser7Ala, Count Allele T, Liver Function Abnormality Present",143 (54.6%)
same,n (%) of patients,"UGT1A6 gene; UGT1A6_232 Ser7Ala, Genotype Heterozygous T/G, Liver Function Abnormality Absent",123 (46.2%)
same,n (%) of patients,"UGT1A6 gene; UGT1A6_232 Ser7Ala, Genotype Heterozygous T/G, Liver Function Abnormality Present",63 (48.1%)
same,n (%) of patients,"UGT1A6 gene; UGT1A6_232 Ser7Ala, Genotype Homozygous G/G, Liver Function Abnormality Absent",31 (11.7%)
same,n (%) of patients,"UGT1A6 gene; UGT1A6_232 Ser7Ala, Genotype Homozygous G/G, Liver Function Abnormality Present",28 (21.4%)
same,n (%) of patients,"UGT1A6 gene; UGT1A6_232 Ser7Ala, Genotype Homozygous T/T, Liver Function Abnormality Absent",112 (42.1%)
same,n (%) of patients,"UGT1A6 gene; UGT1A6_232 Ser7Ala, Genotype Homozygous T/T, Liver Function Abnormality Present",40 (30.5%)
same,n (%) of patients,"UGT1A6 gene; UGT1A6_528 A/G, Allele A Absent, Liver Function Abnormality Absent",22 (8.3%)
same,n (%) of patients,"UGT1A6 gene; UGT1A6_528 A/G, Allele A Absent, Liver Function Abnormality Present",26 (20.0%)
same,n (%) of patients,"UGT1A6 gene; UGT1A6_528 A/G, Allele A Present, Liver Function Abnormality Absent",243 (91.7%)
same,n (%) of patients,"UGT1A6 gene; UGT1A6_528 A/G, Allele A Present, Liver Function Abnormality Present",104 (80.0%)
same,n (%) of patients,"UGT1A6 gene; UGT1A6_528 A/G, Allele G Absent, Liver Function Abnormality Absent",129 (48.7%)
same,n (%) of patients,"UGT1A6 gene; UGT1A6_528 A/G, Allele G Absent, Liver Function Abnormality Present",44 (33.8%)
same,n (%) of patients,"UGT1A6 gene; UGT1A6_528 A/G, Allele G Present, Liver Function Abnormality Absent",136 (51.3%)
same,n (%) of patients,"UGT1A6 gene; UGT1A6_528 A/G, Allele G Present, Liver Function Abnormality Present",86 (66.2%)
